Series [1] relates to non-transgenic w/t Zea mays seedlings. Kind of series: LC/MS of foliar extracts after herbicide treatment. In kind it is in vivo. The settings on record: 24 and 48 h after treatment, 80% acetonitrile/water extract. The procedure: (§1) The expected glucosides of herbicides V and VI corresponding to those seen in vitro are also similarly produced in transgenic […] plants expressing Zea mays BX9 or expressing mutant derivatives of Zea mays BX9. For example, LC/MS analysis of extracts of leaves obtained by maceration and extraction into 80% acetonitrile/water 24 and 48 h after treatment with herbicides V and VI indicate that the same beta-glucosides that are produced by the enzymes in vitro are produced in planta.

Series [2] deals with transgenic tobacco plants expressing SEQ ID NO1 or SEQ ID NO 17. Kind of series: LC/MS of foliar extracts after herbicide treatment. In kind it is in vivo. The settings on record: 24 and 48 h after treatment, 80% acetonitrile/water extract. The method, then: as §1
Series [3] has as its system transgenic tobacco plants expressing zmBX8 (SEQ ID No 2). Kind of series: Glass house spray test on tobacco, percent damage. In kind it is in vivo. To be noted: 30 g/ha. The method, then: In the present example, Zea mays BX8 or BX9 or orthologues of BX8/9, for example SEQ ID Nos. 1-59 and various herbicide-active mutations and combinations of mutations thereof (e.g. as listed in Tables 1-9) are expressed in transgenic tobacco. DNA sequences that encode these polypeptides (optimized for tobacco or, optionally, codon optimized according to a target crop such as soybean) are prepared synthetically and obtained commercially from Genewiz (South Plainfield, USA). Each sequence is designed to include a 5′ fusion with TMV omega 5′ leader (SEQ ID NO: 109). The DNA sequences are flanked at the 5′ end with XhoI and at the 3′ end with KpnI to facilitate direct cloning into a suitable binary vector for Agrobacterium-based plant transformation. […]
Three transgenic populations of about forty tobacco plants and comprising, a glucosyl transferase gene encoding either zmBX8 (SEQ ID NO 2) or zmBX9 (SEQ ID NO 1) were thus produced. […] Plants were assessed for damage and scored at 7 and 14 days after treatment (DAT).

In series [4] the test system is SEQ ID 45, mutant bx-type glucosyl transferase. Put plainly: LC/MS glucosyl transferase assay (glucoside peak area), purified enzyme. The class given is biochemical. The settings on record: about 60 min, ~15 pmol enzyme, nd = not detectable. The procedure: (§2) In an alternative method for assaying the various enzymes, the test glucosyl transferase enzyme is reacted with substrates exactly as above except that the assay is stopped by adding an equal volume of acetonitrile. Alternatively 50 or 100 μl samples from assay reactions are added to 500 μl ethyl acetate to stop the reaction. In this case samples are then vortexed and 400 μl of the ethyl acetate partition removed, dried down, and resuspended in 100 μl 80:20 acetonitrile/water. The formation of product gluco side and/or disappearance of substrate test herbicide is then monitored directly by LC/MS. Samples are analyzed by LC-MS using an Agilent 1290 liquid chromatography system and Thermo Q-Exactive mass spectrometer. The chromatography is achieved on a Waters Acquity C18 BEH (50×2.1 mm) 1.7 μm particle size column, using a 6 minute gradient run of Water (0.2% formic acid) and Acetonitrile. The Q-Exactive is operated in positive ionisation electrospray mode, using Full scan-AIF mode, at 35,000 resolution, between 100-800 m/z. All analytes are identified from the full scan data to within at least 5 ppm accuracy of their predicted pseudo-molecular ion [M+H]^+ m/z value. In order to obtain quantitative data standard curves are run using herbicides and herbicide glucosides synthesized as standards. Where these synthetic glucosides were not available the LC/MS assay could only be used to provide relative data.
(§3) DNA sequences, optimized for E. coli codon usage, were cloned, expressed and the various proteins purified and assayed as described in the foregoing examples. Using the UDP assay (as described in examples 1, 3 and 6) the data obtained from the Zea mays bx8 w/t protein and its variants was noisy due to relatively high background rates in DMSO reagent blanks. The values reported in the table 15 were thus monitored by LC/MS as described in example 1.

Series [5] deals with SEQ ID 43, mutant bx-type glucosyl transferase. Described as above. The settings on record: about 60 min, ~15 pmol enzyme, nd = not detectable. In kind it is biochemical. The method, then: as §2, §3
For series [6], the target named is T1, SEQ ID 35, mutant bx-type glucosyl transferase (Zea mays, UniProt Q8W2B7, A437P).
T1 construct: 35; 3.66E+05; 8.20E+07; 5.96E+06; His tag; made in house
T1 sequence (Q8W2B7 whole entry A437P): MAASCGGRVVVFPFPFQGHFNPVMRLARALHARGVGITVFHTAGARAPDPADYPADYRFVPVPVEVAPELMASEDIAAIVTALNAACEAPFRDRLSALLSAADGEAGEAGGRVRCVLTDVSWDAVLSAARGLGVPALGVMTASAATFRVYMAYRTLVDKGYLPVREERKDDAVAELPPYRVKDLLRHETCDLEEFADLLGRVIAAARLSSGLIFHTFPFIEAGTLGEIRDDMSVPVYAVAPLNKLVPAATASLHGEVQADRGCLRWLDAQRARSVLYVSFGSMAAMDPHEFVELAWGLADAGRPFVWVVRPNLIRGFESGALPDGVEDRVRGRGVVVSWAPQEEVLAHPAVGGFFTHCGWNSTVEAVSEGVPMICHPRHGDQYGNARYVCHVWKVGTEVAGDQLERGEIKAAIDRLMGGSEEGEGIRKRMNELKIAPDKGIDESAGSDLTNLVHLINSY
The series is described as above. In kind it is biochemical. The settings on record: about 60 min, ~15 pmol enzyme, relative quantification only. The procedure: as §2, §3

Values joined by “and” are separate entries in the source; they are usually repeats but may differ in a detail not shown here. Identical values can stand only once.

Turning to `CON1C(=O)N(c2cc(C(F)(F)F)ccn2)C(O)[C@@H]1C` (stereo partly drawn) [Compound VI], the results for the “glucoside found in foliar extract” value in series [1] and in series [2] were “the S-beta stereoisomer O-glucoside product of VI” and “mainly the S-beta stereoisomer O-glucoside product of VI”, respectively. For the same compound, the “tolerance” value in series [3] is recorded as “little or no tolerance”.

On to `CN1CC(O)N(c2cc(C(F)(F)F)ccn2)C1=O` (stereo not drawn) [Compound V], for which the “integrated peak area of beta-glucoside product” value in series [4] is 1.56E+05 and 9.51E+04; in series [5], 3.88E+05 and 2.26E+05; in series [6], 5.96E+06 and 4.40E+06.

The record behind these values is US20200270588A1, “GLUCOSYL TRANSFERASE POLYPEPTIDES AND METHODS OF USE” (Syngenta Participations AG, priority 2017, published 2020).
